Laboratory results taken from patent US20110281808A1, “Composition and Method for Increasing Pre Workout Thermogenics” (ALLMAX NUTRITION INC., priority 2010, published 2011).

Key:
[1] = oral administration of naringin with Yerba Mate, half life of caffeine and thermogenesis; format: in vivo; conditions: oral administration together with Yerba Mate (source of caffeine)
[2] = humans, from grapefruit juice; cited from earlier work
[3] = oral administration of 500 mg hordenine to horses; cited from earlier work
[4] = after ingestion, horses; cited from earlier work
[5] = system: central nervous system; conditions: cats under anaesthesia; cited from earlier work

Compound: C[C@@H]1O[C@@H](O[C@H]2[C@H](Oc3cc(O)c4c(c3)O[C@H](c3ccc(O)cc3)CC4=O)O[C@H](CO)[C@@H](O)[C@@H]2O)[C@H](O)[C@H](O)[C@H]1O [naringin, 4′, 5,7-tri-hydroxyflavonone 7-rhamno-glucoside]
- effect on half life of caffeine and thermogenesis [1]: acts synergistically with Yerba Mate

Compound: O=C1C[C@@H](c2ccc(O)cc2)Oc2cc(O)cc(O)c21 [naringenin]
- bioavailability [2]: bioavailable from grapefruit juice

Compound: CN(C)CCc1ccc(O)cc1 [hordenine, N,N-dimethyl-4-hydroxyphenylethylamine]
- heart rate [3]: slight increase in heart rate
- half-life [4]: 24 min
- muscle tone / spinal cord stimulation [5]: increases muscle tone
